Experimental data reported in patent EP4640688A1, “AVERMECTIN DERIVATIVE” (Meiji Seika Pharma Co., Ltd., priority 2022, dated 2024).

Tested on: SARS-CoV-2
Assay type: cell-based
Settings: concentration reducing replication to 50% vs control, read-out: Antiviral activity

CCC(C)C1OC2(CCC1C)CC1CC(CC=C(C)C(OC3CC(OC)C(OC4CC(OC)C(O)C(C)O4)C(C)O3)C(C)C=CC=C3COC4C(=NO)C(C)CC(C(=O)O1)C34O)O2 (centres unmarked) [Compound I-1] was tested, and the IC50 was < 1000 nM.

For CCC(C)C1OC2(CCC1C)CC1CC(CC=C(C)C(OC3CC(OC)C(OC4CC(OC)C(O)C(C)O4)C(C)O3)C(C)C=CC=C3COC4C(=NOCC(=O)NC)C(C)=CC(C(=O)O1)C34O)O2 (centres unmarked) [Compound I-124], the IC50 was < 1000 nM.
